Laboratory results as given in patent US20140081017A1, “Histone Deacetylase Inhibitors for Enhancing Activity of Antifungal Agents” (METHYLGENE INC., priority 2012, published 2014).
Converted amounts (≈) assume the structure as drawn. Read-outs that look alike come from different tables or passages of the source.

Experiments:
[1] = test system: Candida glabrata; assay: Minimal Inhibitory Concentration (MIC) assay, broth microdilution per CLSI; assay type: cell-based; conditions: Nakaseomyces glabratus, read-out: Minimum Inhibitory Concentrations against Yeast Isolates, Candida glabrata;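 also: two read times 24 hr and 48 hr of incubation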
Summary of the method: (§1)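 CLSI broth microdilution in RPMI with 0.165 M MOPS, pH 7.0, inoculum from 0.5 McFarland suspension diluted 1:100; compounds in DMSO. Incubation at 35°C for about 24-48 hr; MIC is lowest concentration without visible growth, fluconazole at prominent decrease in growth.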

[2] = test system: Candida parapsilosis; assay: as above; assay type: cell-based; conditions: Lodderomyces parapsilosis, read-out: Minimum Inhibitory Concentrations against Yeast Isolates, Candida parapsilosis;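 also: two read times 24 hr and 48 hr of incubation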
Summary of the method: as §1

[3] = test system: Candida albicans; assay: as above; assay type: cell-based; conditions: Candida albicans, read-out: Minimum Inhibitory Concentrations against Yeast Isolates, Candida albicans;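 also: two read times 24 hr and 48 hr of incubation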
Summary of the method: as §1

[4] = test system: C. glabrata; assay: Checkerboard FIC assay in combination with fluconazole (MIC alone and in combination, FICI); assay type: cell-based, Candida glabrata; conditions: for FICI of combination resulting in fluconazole MIC of: 2 ug/mL / FICI of combination resulting in fluconazole MIC of: 4 ug/mL / FICI of combination resulting in fluconazole MIC of: 8 ug/mL: FICI calculated using a fluconazole MIC of 16 μg/mL; for FICI of combination resulting in fluconazole MIC of: 2 ug/mL (value in parenthesis) / FICI of combination resulting in fluconazole MIC of: 4 ug/mL (value in parenthesis) / FICI of combination resulting in fluconazole MIC of: 8 ug/mL (value in parenthesis): FICI using a fluconazole MIC of 128 μg/mL; for MIC: Nakaseomyces glabratus; for Multiple of compound MIC to synergize fluconazole MIC to 2 ug/mL / Multiple of compound MIC to synergize fluconazole MIC to 4 ug/mL / Multiple of compound MIC to synergize fluconazole MIC to 8 ug/mL: concentration in combination as multiple of the compound's MIC alone; for Multiple of compound MIC to synergize fluconazole MIC to 2 ug/mL: fluconazole MIC 2 ug/mL; for Multiple of compound MIC to synergize fluconazole MIC to 4 ug/mL: fluconazole MIC 4 ug/mL; for Multiple of compound MIC to synergize fluconazole MIC to 8 ug/mL: fluconazole MIC 8 ug/mL; for Concentration of Methylgene compound to synergize fluconazole MIC to 2 ug/mL / Concentration of Methylgene compound to synergize fluconazole MIC to 4 ug/mL / Concentration of Methylgene compound to synergize fluconazole MIC to 8 ug/mL: in combination with fluconazole; for Concentration of Methylgene compound to synergize fluconazole MIC to 2 ug/mL: fluconazole MIC lowered to 2 ug/mL; for Concentration of Methylgene compound to synergize fluconazole MIC to 4 ug/mL: fluconazole MIC lowered to 4 ug/mL; for Concentration of Methylgene compound to synergize fluconazole MIC to 8 ug/mL: fluconazole MIC lowered to 8 ug/mL
Summary of the method: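 C. glabrata was tested by CLSI broth microdilution checkerboard, crossing 2-fold dilutions of compound with 2-fold dilutions of fluconazole. The medium was RPMI with 0.165 M MOPS at pH 7.0, inoculated from a 0.5 McFarland suspension diluted 1:100, then incubated about 48 h at 35 °C. Single-agent MICs gave the FIC and FICI values.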

[5] = 24 hr reading (first value of cell 24 hr/48 hr)
[6] = 48 hr reading (second value of cell 24 hr/48 hr)
[7] = MIC of the example compound alone against C. glabrata in the checkerboard assay, approximately 48 hr, read-out: Methylgene MIC
[8] = test compound alone, C. glabrata, approx. 48 hr at 35° C., read-out: Compound MIC

| Compound | MIC [1, 5] [µg/mL] | MIC [1, 6] [µg/mL] | MIC [2, 5] [µg/mL] | MIC [2, 6] [µg/mL] | MIC [3, 5] [µg/mL] | MIC [3, 6] [µg/mL] | FICI of combination resulting in fluconazole MIC of: 2 ug/mL ([4]; C. glabrata) | FICI of combination resulting in fluconazole MIC of: 4 ug/mL ([4]; C. glabrata) | FICI of combination resulting in fluconazole MIC of: 8 ug/mL ([4]; C. glabrata) | FICI of combination resulting in fluconazole MIC of: 2 ug/mL (value in parenthesis) ([4]; C. glabrata) | FICI of combination resulting in fluconazole MIC of: 4 ug/mL (value in parenthesis) ([4]; C. glabrata) | FICI of combination resulting in fluconazole MIC of: 8 ug/mL (value in parenthesis) ([4]; C. glabrata) | MIC [4, 7] [µg/mL] | MIC [4, 8] [µg/mL] | Multiple of compound MIC to synergize fluconazole MIC to 2 ug/mL [4] | Multiple of compound MIC to synergize fluconazole MIC to 4 ug/mL [4] | Multiple of compound MIC to synergize fluconazole MIC to 8 ug/mL [4] | Concentration of Methylgene compound to synergize fluconazole MIC to 2 ug/mL ([4]; C. glabrata) [µg/mL] | Concentration of Methylgene compound to synergize fluconazole MIC to 4 ug/mL ([4]; C. glabrata) [µg/mL] | Concentration of Methylgene compound to synergize fluconazole MIC to 8 ug/mL ([4]; C. glabrata) [µg/mL] |
| --- | --- | --- | --- | --- | --- | --- | --- | --- | --- | --- | --- | --- | --- | --- | --- | --- | --- | --- | --- | --- |
| Cn1ccc2cc(CCCCc3ccc(CC(=O)NO)cc3)ccc21 [Example 6, N-hydroxy-2-(4-(4-(1-methyl-1H-indol-5-yl)butyl)phenyl) acetamide] | 0.25 (≈ 0.743 µM) | 0.5 (≈ 1.49 µM) | > 4 | > 4 | 0.5 (≈ 1.49 µM) | 0.5 (≈ 1.49 µM) | 0.313 | 0.245 | 0.370 | 0.266 | 0.151 | 0.183 | 1 | 1 | (¼x) | (⅛x) | (⅛x) | 0.25 | 0.12 | 0.12 |
| CN1CCN(CCNC(=O)Nc2cccc(CCCCc3ccc(CC(=O)NO)cc3)c2)CC1 [Example 49, N-hydroxy-2-(4-(4-(3-(3-(2-(4-methylpiperazin-1-yl)ethyl)ureido)phenyl)butyl)phenyl)acetamide] | 16 (≈ 34.2 µM) | > 64 | > 64 | > 64 | > 64 | > 64 | 0.188 | 0.250 | 0.313 | 0.141 | 0.156 | 0.125 | > 16 | > 16 |  |  |  | 4 | 4 | 2 |
| O=C(Cc1ccc(CCC/C(=N\O)c2ccccc2)cc1)NO [Example 27, (E)-N-hydroxy-2-(4-(4-(hydroxyimino)-4-phenylbutyl)phenyl) acetamide] | 8 (≈ 25.6 µM) | 16 (≈ 51.2 µM) | > 64 | > 64 | 64 (≈ 205 µM) | 64 (≈ 205 µM) | 0.313 | 0.375 | 0.375 | 0.266 | 0.281 | 0.188 | 16 | 16 | (¼x) | (¼x) | (⅛x) | 4 | 4 | 2 |
| O=C(Cc1ccc(CCCCc2ccc(OCCCN3CCOCC3)cc2)cc1)NO [Example 16, N-hydroxy-2-(4-(4-(4-(3-morpholinopropoxy)phenyl)butyl)phenyl)acetamide] | > 32 | > 32 | > 16 | > 16 | > 16 | > 16 | 0.375 | 0.500 | 0.625 | 0.266 | 0.281 | 0.188 | 2 | 2 | (¼x) | (¼x) | (⅛x) | 0.5 | 0.5 | 0.25 |

Other lines, results leading:

| MIC [1, 5] [µg/mL] | MIC [1, 6] [µg/mL] | MIC [2, 5] [µg/mL] | MIC [2, 6] [µg/mL] | MIC [3, 5] [µg/mL] | MIC [3, 6] [µg/mL] | FICI of combination resulting in fluconazole MIC of: 2 ug/mL ([4]; C. glabrata) | FICI of combination resulting in fluconazole MIC of: 4 ug/mL ([4]; C. glabrata) | FICI of combination resulting in fluconazole MIC of: 8 ug/mL ([4]; C. glabrata) | FICI of combination resulting in fluconazole MIC of: 2 ug/mL (value in parenthesis) ([4]; C. glabrata) | FICI of combination resulting in fluconazole MIC of: 4 ug/mL (value in parenthesis) ([4]; C. glabrata) | FICI of combination resulting in fluconazole MIC of: 8 ug/mL (value in parenthesis) ([4]; C. glabrata) | MIC [4, 7] [µg/mL] | MIC [4, 8] [µg/mL] | Multiple of compound MIC to synergize fluconazole MIC to 2 ug/mL [4] | Multiple of compound MIC to synergize fluconazole MIC to 4 ug/mL [4] | Multiple of compound MIC to synergize fluconazole MIC to 8 ug/mL [4] | Concentration of Methylgene compound to synergize fluconazole MIC to 2 ug/mL ([4]; C. glabrata) [µg/mL] | Concentration of Methylgene compound to synergize fluconazole MIC to 4 ug/mL ([4]; C. glabrata) [µg/mL] | Concentration of Methylgene compound to synergize fluconazole MIC to 8 ug/mL ([4]; C. glabrata) [µg/mL] | Compound |
| --- | --- | --- | --- | --- | --- | --- | --- | --- | --- | --- | --- | --- | --- | --- | --- | --- | --- | --- | --- | --- |
| 16 (≈ 36.1 µM) | 16 (≈ 36.1 µM) | > 64 | > 64 | > 64 | > 64 | 0.563 | 0.375 | 0.375 | 0.516 | 0.281 | 0.188 | 16 | 16 | (½x) | (¼x) | (⅛x) | 8 | 4 | 2 | CN(C)CCSCC(=O)Nc1ccc(CCCCc2ccc(CC(=O)NO)cc2)cc1 [Example 38, 2-(2-(dimethylamino)ethylthio)-N-(4-(4-(4-(2-(hydroxyamino)-2-oxoethyl)phenyl)butyl)phenyl)acetamide] |
| > 64 | > 64 | > 64 | > 64 | > 64 | > 64 | 0.375 | 0.375 | 0.625 | 0.266 | 0.156 | 0.188 | 8 | 8 | (¼x) | (⅛x) | (⅛x) | 2 | 1 | 1 | COCCOCCOCCNC(=O)c1ccc(CCCCc2ccc(CC(=O)NO)cc2)cc1 [Example 11, 4-(4-(4-(2-(hydroxyamino)-2-oxoethyl)phenyl)butyl)-N-(2-(2-(2-methoxyethoxy)ethoxy)ethyl)benzamide] |
